According to US12428406B2 (PMV Pharmaceuticals, Inc., priority 2019, dated 2025):

These compounds were tested against T1, p53 Y220C (Homo sapiens, UniProt P04637, Y220C) (assay: In vitro DNA binding activity assay (HTRF / TR-FRET): stabilization of p53 Y220C and increase of its DNA binding activity). Conditions: recombinant His-tagged p53 Y220C DNA binding domain (aa 94-312), biotin-labeled consensus DNA, incubated at 27° C. or 29° C. for 60 min.
T1 construct: The recombinant protein was a truncation mutant containing only amino acids 94-312 of p53; made in house; host or cells: E. coli
T1 sequence (P04637 94-312, change not shown): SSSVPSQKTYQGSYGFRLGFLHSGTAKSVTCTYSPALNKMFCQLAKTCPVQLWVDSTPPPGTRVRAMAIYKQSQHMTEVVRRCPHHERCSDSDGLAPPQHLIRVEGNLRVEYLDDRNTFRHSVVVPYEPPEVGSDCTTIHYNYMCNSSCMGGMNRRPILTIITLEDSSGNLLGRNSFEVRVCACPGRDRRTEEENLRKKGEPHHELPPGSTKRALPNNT
Assay type: biochemical
How it was run: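 Stabilization of the mutant is inferred from increased binding of His-tagged p53 Y220C to a biotin-labeled consensus DNA, detected by HTRF with europium-streptavidin and APC-anti-His antibody. The concentration giving a 50% rise over compound-free binding is reported as SC150.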
With `CN1CCC(Nc2cccc3c2cc(C#CCNc2ccc(S(C)(=O)=O)cc2OCF)n3CC(F)(F)F)CC1` [Compound 490A, 2-(3-{[2-(fluoromethoxy)-4-methanesulfonylphenyl]amino}prop-1-yn-1-yl)-N-(1-methylpiperidin-4-yl)-1-(2,2,2-trifluoroethyl)-1H-indol-4-amine] the “SC150 (concentration of the compound required to increase the DNA binding activity by 50%)” value was “+ (+ = 0 μM ≤ SC150 < 0.05 μM)”.
In the case of `COc1cc(S(N)(=O)=O)ccc1NCC#Cc1cc2c(N[C@H]3CC[C@H](N4CC5(CCCOC5)C4)CC3)cccc2n1CC(F)(F)F` [Compound 320A, 3-methoxy-4-{[3-(4-{[(1R,4R)-4-{6-oxa-2-azaspiro[3.5]nonan-2-yl}cyclohexyl]amino}-1-(2,2,2-trifluoro-ethyl)-1H-indol-2-yl)prop-2-yn-1-yl]amino} benzene-1-sulfonamide], the “SC150 (concentration of the compound required to increase the DNA binding activity by 50%)” value is reported as “+ (+ = 0 μM ≤ SC150 < 0.05 μM)”.
For `COc1cc(S(C)(=O)=O)ccc1NCC#Cc1cc2c(N[C@H]3CC[C@H](N4CC5COCC5C4)CC3)cccc2n1CC(F)(F)F` (stereo partly drawn) [Compound 432A, 2-{3-[(4-methane-sulfonyl-2-methoxy-phenyl)amino]prop-1-yn-1-yl}-N-[(1R,4R)-4-{hexahydro-1H-furo[3,4-c]pyrrol-5-yl}cyclohexyl]-1-(2,2,2-trifluoroethyl)-1H-indol-4-amine], the “SC150 (concentration of the compound required to increase the DNA binding activity by 50%)” value was “+ (+ = 0 μM ≤ SC150 < 0.05 μM)”.
With `COc1cc(S(N)(=O)=O)ccc1NCC#Cc1cc2c(N[C@H]3CC[C@H](N4CCC(S(C)(=O)=O)CC4)CC3)cccc2n1CC(F)(F)F` [Compound 446A, 3-methoxy-4-{[3-(4-{[(1R,4R)-4-(4-methanesulfonyl-piperidin-1-yl)cyclo-hexyl]amino}-1-(2,2,2-trifluoroethyl)-1H-indol-2-yl)prop-2-yn-1-yl]amino}benzene-1-sulfonamide] the “SC150 (concentration of the compound required to increase the DNA binding activity by 50%)” value was “+ (+ = 0 μM ≤ SC150 < 0.05 μM)”.
For `COc1cncc(-c2ccc(NCC#Cc3cc4c(NC5CCN(C)CC5)cccc4n3CC(F)(F)F)c(OC)c2)c1` [Compound 494A, 2-(3-{[2-methoxy-4-(5-methoxypyridin-3-yl)phenyl]amino}prop-1-yn-1-yl)-N-(1-methylpiperidin-4-yl)-1-(2,2,2-trifluoroethyl)-1H-indol-4-amine], the “SC150 (concentration of the compound required to increase the DNA binding activity by 50%)” value was “+ (+ = 0 μM ≤ SC150 < 0.05 μM)”.
With `COc1cc(S(=O)(=O)N2CCN(C(C)=O)CC2)ccc1NCC#Cc1cc2c(NC3CCN(C)CC3)cccc2n1CC(F)(F)F` [Compound 479A] the “SC150 (concentration of the compound required to increase the DNA binding activity by 50%)” value was “+ (+ = 0 μM ≤ SC150 < 0.05 μM)”.
`COc1cc(S(C)(=O)=O)ccc1NCC#Cc1cc2c(NC3CCN(C(C)C)CC3)cccc2n1CC(F)(F)F` [Compound 542A, 2-{3-[(4-methanesulfonyl-2-methoxyphenyl)amino]prop-1-yn-1-yl}-N-[1-(propan-2-yl)piperidin-4-yl]-1-(2,2,2-trifluoroethyl)-1H-indol-4-amine] was tested, and the “SC150 (concentration of the compound required to increase the DNA binding activity by 50%)” value was “+ (+ = 0 μM ≤ SC150 < 0.05 μM)”.
`COc1cc(C(F)(F)F)ccc1NCC#Cc1cc2c(NC3CCN(C)CC3)cccc2n1CC(F)(F)F` [Compound 515A, 2-(3-{[2-methoxy-4-(trifluoromethyl)phenyl]amino}prop-1-yn-1-yl)-N-(1-methylpiperidin-4-yl)-1-(2,2,2-trifluoroethyl)-1H-indol-4-amine] was tested, and the “SC150 (concentration of the compound required to increase the DNA binding activity by 50%)” value was “++ (++ = 0.05 μM ≤ SC150 < 0.1 μM)”.
In the case of `CCC(=O)OCC(CN1CCC(Nc2cccc3c2cc(C#CCNc2ccc(S(C)(=O)=O)cc2OC)n3CC(F)(F)F)CC1)OC(=O)CC` (stereo not shown) [Compound 586A, 1-{4-[(2-{3-[(4-methanesulfonyl-2-methoxyphenyl)amino]prop-1-yn-1-yl}-1-(2,2,2-trifluoroethyl)-1H-indol-4-yl)amino]piperidin-1-yl}-3-(propanoyloxy)propan-2-yl propanoate], the “SC150 (concentration of the compound required to increase the DNA binding activity by 50%)” value is reported as “+ (+ = 0 μM ≤ SC150 < 0.05 μM)”.
`COc1cc(C(N)=O)ccc1NCC#Cc1cc2c(N[C@H]3CC[C@H](N4CC5(COC5)C4)CC3)cccc2n1CC(F)(F)F` [Compound 212A, 3-methoxy-4-{[3-(4-{[(1R,4R)-4-{2-oxa-6-azaspiro[3.3]heptan-6-yl}cyclohexyl]amino}-1-(2,2,2-trifluoroethyl)-1H-indol-2-yl)prop-2-yn-1-yl]amino}benzamide] was tested, and the “SC150 (concentration of the compound required to increase the DNA binding activity by 50%)” value was “+ (+ = 0 μM ≤ SC150 < 0.05 μM)”.
With `COc1cc(S(=O)(=O)N2CCN(C)CC2)ccc1NCC#Cc1cc2c(N[C@H]3CC[C@H](N(C)C)CC3)cccc2n1CC(F)(F)F` [Compound 76A, (1R,4R)-N^4-{2-[3-({2-methoxy-4-[(4-methylpiperazin-1-yl)sulfonyl]phenyl}amino)prop-1-yn-1-yl]-1-(2,2,2-trifluoroethyl)-1H-indol-4-yl}-N^1,N^1-dimethyl-cyclohexane-1,4-diamine] the “SC150 (concentration of the compound required to increase the DNA binding activity by 50%)” value was “+ (+ = 0 μM ≤ SC150 < 0.05 μM)”.
In the case of `COCC(O)CN1CCCC(Nc2cccc3c2cc(C#CCNc2ccc(S(C)(=O)=O)cc2OC)n3CC(F)(F)F)CC1` (stereo not shown) [Compound 989A, 1-{4-[(2-{3-[(4-methanesulfonyl-2-methoxyphenyl)amino]prop-1-yn-1-yl}-1-(2,2,2-trifluoroethyl)-1H-indol-4-yl)amino]azepan-1-yl}-3-methoxypropan-2-ol], the “SC150 (concentration of the compound required to increase the DNA binding activity by 50%)” value is reported as “+ (+ = 0 μM ≤ SC150 < 0.05 μM)”.
In the case of `COCCN(C)[C@H]1CC[C@H](Nc2cccc3c2cc(C#CCNc2ccc(S(N)(=O)=O)cc2OCF)n3CC(F)(F)F)CC1` [Compound 168A, 3-(fluoromethoxy)-4-{[3-(4-{[(1R,4R)-4-[(2-methoxyethyl)(methyl)amino]cyclohexyl]amino}-1-(2,2,2-trifluoro-ethyl)-1H-indol-2-yl)prop-2-yn-1-yl]amino}benzene-1-sulfonamide], the “SC150 (concentration of the compound required to increase the DNA binding activity by 50%)” value is reported as “+ (+ = 0 μM ≤ SC150 < 0.05 μM)”.
`COc1cc(S(C)(=O)=O)ccc1NCC#Cc1cc2c(NC3CCN(C[C@@H]4COC(=O)O4)CC3)cccc2n1CC(F)(F)F` [Compound 563A, (4R)-4-({4-[(2-{3-[(4-methanesulfonyl-2-methoxyphenyl)amino]prop-1-yn-1-yl}-1-(2,2,2-trifluoroethyl)-1H-indol-4-yl)amino]piperidin-1-yl}methyl)-1,3-dioxolan-2-one] was tested, and the “SC150 (concentration of the compound required to increase the DNA binding activity by 50%)” value was “+ (+ = 0 μM ≤ SC150 < 0.05 μM)”.
With `CCC(=O)OC(C)CN1CCC(Nc2cccc3c2cc(C#CCNc2ccc(S(C)(=O)=O)cc2OC)n3CC(F)(F)F)CC1` (racemic) [Compound 590A, 1-{4-[(2-{3-[(4-methanesulfonyl-2-methoxyphenyl)amino]prop-1-yn-1-yl}-1-(2,2,2-trifluoroethyl)-1H-indol-4-yl)amino]piperidin-1-yl}propan-2-yl propanoate] the “SC150 (concentration of the compound required to increase the DNA binding activity by 50%)” value was “+ (+ = 0 μM ≤ SC150 < 0.05 μM)”.
For `CS(=O)(=O)c1ccc(NCC#Cc2cc3c(NC4CCOCC4)cccc3n2CC(F)(F)F)c(O)c1` [Compound 1009A, 5-methanesulfonyl-2-[(3-{4-[(oxan-4-yl)amino]-1-(2,2,2-trifluoroethyl)-1H-indol-2-yl}prop-2-yn-1-yl)amino]phenol], the “SC150 (concentration of the compound required to increase the DNA binding activity by 50%)” value was “+ (+ = 0 μM ≤ SC150 < 0.05 μM)”.
`CCOC(=O)c1ccc(NCC#Cc2cc3c(N[C@H]4CCN(C)C[C@H]4F)cccc3n2CC(F)(F)F)c(OC)c1` (racemic) [Compound 798A, rac-ethyl 4-{[3-(4-{[(3R,4S)-3-fluoro-1-methylpiperidin-4-yl]amino}-1-(2,2,2-trifluoroethyl)-1H-indol-2-yl)prop-2-yn-1-yl]amino}-3-methoxybenzoate] was tested, and the “SC150 (concentration of the compound required to increase the DNA binding activity by 50%)” value was “+ (+ = 0 μM ≤ SC150 < 0.05 μM)”.
`CNC(=O)c1ccc(NCC#Cc2cc3c(N[C@H]4CC[C@@H](N5CCC6(CC5)COC6)CC4)cccc3n2CC(F)(F)F)c(OC)c1` [Compound 376A, 3-methoxy-N-methyl-4-{[3-(4-{[(1S,4S)-4-{2-oxa-7-azaspiro[3.5]nonan-7-yl}cyclohexyl]amino}-1-(2,2,2-trifluoroethyl)-1H-indol-2-yl)prop-2-yn-1-yl]amino}benzamide] was tested, and the “SC150 (concentration of the compound required to increase the DNA binding activity by 50%)” value was “+ (+ = 0 μM ≤ SC150 < 0.05 μM)”.
For `COCC(O)CN1CCC(Nc2cccc3c2cc(C#CCNc2ccc(S(=O)(=O)NC(C)=O)cc2OC)n3CC(F)(F)F)CC1` (stereo not shown) [Compound 606A, N-(4-{[3-(4-{[1-(2-hydroxy-3-methoxypropyl)pipcridin-4-yl]amino}-1-(2,2,2-trifluoroethyl)-1H-indol-2-yl)prop-2-yn-1-yl]amino}-3-methoxybenzenesulfonyl) acetamide], the “SC150 (concentration of the compound required to increase the DNA binding activity by 50%)” value was “+ (+ = 0 μM ≤ SC150 < 0.05 μM)”.
For `CNC(=O)c1ccc(NCC#Cc2cc3c(NC4CCN(CC(C)O)CC4)cccc3n2CC(F)(F)F)c(OC)c1` (stereo not shown) [Compound 596A, 4-{[3-(4-{[1-(2-hydroxypropyl)piperidin-4-yl]amino}-1-(2,2,2-trifluoroethyl)-1H-indol-2-yl)prop-2-yn-1-yl]amino}-3-methoxy-N-methylbenzamide], the “SC150 (concentration of the compound required to increase the DNA binding activity by 50%)” value was “+ (+ = 0 μM ≤ SC150 < 0.05 μM)”.
With `COc1cc(S(N)(=O)=O)ccc1NCC#Cc1cc2c(N[C@H]3CCN(C)C[C@H]3F)cccc2n1CC(F)(F)F` [Compound 790A, 4-{[3-(4-{[(3R,4S)-3-fluoro-1-methylpiperidin-4-yl]amino}-1-(2,2,2-trifluoroethyl)-1H-indol-2-yl)prop-2-yn-1-yl]amino}-3-methoxybenzene-1-sulfonamide] the “SC150 (concentration of the compound required to increase the DNA binding activity by 50%)” value was “+ (+ = 0 μM ≤ SC150 < 0.05 μM)”.
With `COc1cc(S(C)(=O)=O)ccc1NCC#Cc1cc2c(NC3CCN(C[C@@H](O)CO)CC3)cccc2n1CC(F)(F)F` [Compound 557A, (2R)-3-{4-[(2-{3-[(4-methanesulfonyl-2-methoxyphenyl)amino]prop-1-yn-1-yl}-1-(2,2,2-trifluoroethyl)-1H-indol-4-yl)amino]piperidin-1-yl}propane-1,2-diol] the “SC150 (concentration of the compound required to increase the DNA binding activity by 50%)” value was “+ (+ = 0 μM ≤ SC150 < 0.05 μM)”.
